Results as given in BindingDB's records for doi:10.1016/j.bmcl.2012.10.084 (Takeda Pharmaceutical, 2012).

Target: Mitogen-activated protein kinase kinase kinase 7 (TAK1) (Homo sapiens) (UniProt O43318)
Experiment: Inhibition of TAK1

Mitogen-activated protein kinase kinase kinase 7 (TAK1) (Homo sapiens), sequence (O43318 whole entry, looked up): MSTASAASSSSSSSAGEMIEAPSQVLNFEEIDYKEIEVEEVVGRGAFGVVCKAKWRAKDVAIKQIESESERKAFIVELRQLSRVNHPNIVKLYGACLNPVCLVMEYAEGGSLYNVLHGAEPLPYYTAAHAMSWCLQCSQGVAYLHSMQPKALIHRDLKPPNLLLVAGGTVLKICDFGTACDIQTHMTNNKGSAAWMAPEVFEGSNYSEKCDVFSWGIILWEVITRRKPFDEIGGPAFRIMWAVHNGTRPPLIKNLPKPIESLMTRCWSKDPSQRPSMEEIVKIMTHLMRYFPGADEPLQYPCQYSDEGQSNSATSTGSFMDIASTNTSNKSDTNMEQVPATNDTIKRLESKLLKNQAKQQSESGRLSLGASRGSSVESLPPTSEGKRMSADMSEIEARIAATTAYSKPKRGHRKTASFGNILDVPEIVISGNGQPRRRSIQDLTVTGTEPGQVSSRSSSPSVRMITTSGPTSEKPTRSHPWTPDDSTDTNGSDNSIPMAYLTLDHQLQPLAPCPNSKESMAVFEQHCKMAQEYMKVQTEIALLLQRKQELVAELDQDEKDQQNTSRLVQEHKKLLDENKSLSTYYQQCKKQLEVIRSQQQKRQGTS

IC50: > 10 µM
Structure (SMILES): CC(C)(C)c1ccc(C(=O)Nc2cn3cc(-n4ccnc4)ccc3n2)cc1
